# Assay results published in patent publication US20200405696A1, “INHIBITORS OF INDOLEAMINE 2,3-DIOXYGENASE AND/OR TRYPTOPHAN 2,3-DIOXYGENASE” (IDORSIA PHARMACEUTICALS LTD, priority 2018, published 2020).
# Assays:
# [1] = biological target: T1, Recombinant full-length human IDO1 (Homo sapiens, UniProt P14902); assay: IDO1 enzymatic assay (NFK quantified by LCMS); assay type: biochemical; conditions: 2 nM enzyme, 5 μM L-tryptophan, pH6.5, 30 minutes pre-incubation at RT; mean values when measured multiple times; read-out: hIDO activity (IC50 in nM)
# T1 construct: Recombinant full-length human IDO1 with a N-terminal hexahistidine tag; hexahistidine (His6) (N); made in house; host or cells: E. coli
# In short: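 His-tagged human IDO1 (2 nM) in pH 6.5 phosphate buffer with ascorbate, methylene blue and catalase was preincubated with compound (10 μM–0.5 nM, 0.6% DMSO) for 30 min at RT. The reaction then ran with 5 μM L-Trp for 30 min. NFK was measured by LCMS against a d5-Trp standard, and IC50 was obtained by four-parameter fit.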
# [2] = biological target: T2, Recombinant human TDO comprising amino acids 19-407 (Homo sapiens, UniProt P48775); assay: TDO2 enzymatic assay (NFK quantified by LCMS); assay type: biochemical; conditions: 15 nM enzyme, 200 μM L-tryptophan, pH7, 30 minutes pre-incubation at RT; mean values when measured multiple times; read-out: hTDO activity (IC50 in nM)
# T2 construct: Recombinant human TDO comprising amino acids 19-407 with a N-terminal hexahistidine tag; hexahistidine (His6) (N); made in house; host or cells: E. coli
# In short: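 NFK formed over 30 min at RT from 200 μM L-tryptophan was measured by LCMS, normalized to d5-tryptophan, after compound (0.5 nM–10 μM, duplicates, 0.6% DMSO) was preincubated 30 min with 15 nM recombinant His-tagged TDO 19-407 in phosphate buffer pH 7. IC50 from four-parameter logistic fit; repeats averaged.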
# T2 sequence (P48775 19-406 limits assumed): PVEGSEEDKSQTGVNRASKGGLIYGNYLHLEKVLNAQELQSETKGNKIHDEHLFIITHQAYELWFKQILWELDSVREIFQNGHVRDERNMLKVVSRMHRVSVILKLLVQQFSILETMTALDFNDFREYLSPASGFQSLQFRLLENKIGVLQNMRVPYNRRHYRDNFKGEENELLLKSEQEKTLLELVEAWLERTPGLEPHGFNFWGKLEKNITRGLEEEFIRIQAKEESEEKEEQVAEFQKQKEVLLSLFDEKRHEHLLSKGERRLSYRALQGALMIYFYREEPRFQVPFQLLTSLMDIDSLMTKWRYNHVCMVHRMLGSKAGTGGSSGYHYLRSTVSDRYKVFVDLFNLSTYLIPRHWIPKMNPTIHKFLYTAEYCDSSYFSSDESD
# T1 sequence (P14902 whole entry): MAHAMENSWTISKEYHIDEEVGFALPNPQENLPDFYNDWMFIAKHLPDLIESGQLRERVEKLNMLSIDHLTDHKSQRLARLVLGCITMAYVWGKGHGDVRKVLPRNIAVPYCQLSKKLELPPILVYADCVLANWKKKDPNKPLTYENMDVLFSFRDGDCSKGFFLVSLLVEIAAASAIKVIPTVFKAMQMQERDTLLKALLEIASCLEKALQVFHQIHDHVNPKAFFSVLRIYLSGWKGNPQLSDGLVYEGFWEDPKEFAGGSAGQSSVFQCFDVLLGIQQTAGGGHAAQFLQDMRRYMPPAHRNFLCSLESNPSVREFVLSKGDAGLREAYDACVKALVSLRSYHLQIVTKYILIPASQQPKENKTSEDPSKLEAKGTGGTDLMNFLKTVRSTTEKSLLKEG
Structure (SMILES),IC50 [1] [nM],IC50 [2] [nM]
"CCOc1ncc(-n2cc(C(O)c3c(C4CC4)sc4cncn34)nn2)cc1C(F)(F)F (racemic) [Example 76, rac-(2-Cyclopropyl-imidazo[5,1-b]thiazol-3-yl)-[1-(6-ethoxy-5-trifluoromethyl-pyridin-3-yl)-1H-[1,2,3]triazol-4-yl]-methanol]",363,> 10200
"OC(c1cn(-c2ccc(OCc3ccccc3)cc2)nn1)c1c(C2CC2)sc2cncn12 (racemic) [Example 45, rac-[1-(4-Benzyloxy-phenyl)-1H-[1,2,3]triazol-4-yl]-(2-cyclopropyl-imidazo[5,1-b]thiazol-3-yl)-methanol]",46.4,> 10200
"CCc1sc2cncn2c1C(O)c1cn(-c2cccc(C#N)c2)nn1 (racemic) [Example 51, rac-3-{4-[(2-Ethyl-imidazo[5,1-b]thiazol-3-yl)-hydroxy-methyl]-[1,2,3]triazol-1-yl}-benzonitrile]",37.1,> 10200
"CN1CCCC(COc2ccc(-n3cc(C(O)c4c(C5CC5)sc5cncn45)nn3)cc2)C1 (centres unmarked) [Example 146, (2-Cyclopropyl-imidazo[5,1-b]thiazol-3-yl)-{1-[4-(1-methyl-piperidin-3-ylmethoxy)-phenyl]-1H-[1,2,3]triazol-4-yl}-methanol]",44.4,> 10200
"O[C@@H](c1cn(-c2ccc3[nH]ccc3c2)nn1)c1c(C2CC2)sc2cncn12 [Example 16a, (R)-(2-Cyclopropyl-imidazo[5,1-b]thiazol-3-yl)-[1-(1H-indol-5-yl)-1H-[1,2,3]triazol-4-yl]-methanol]",4.55,4570
"COc1ccc(-n2cc(C(O)c3c(C4CC4)sc4cncn34)nn2)cn1 (racemic) [Example 69, rac-(2-Cyclopropyl-imidazo[5,1-b]thiazol-3-yl)-[1-(6-methoxy-pyridin-3-yl)-1H-[1,2,3]triazol-4-yl]-methanol]",22.7,> 10200
"CCOc1ccc(-n2cc(C(O)c3c(CC)sc4cncn34)nn2)cn1 (racemic) [Example 46, rac-[1-(6-Ethoxy-pyridin-3-yl)-1H-[1,2,3]triazol-4-yl]-(2-ethyl-imidazo[5,1-b]thiazol-3-yl)-methanol]",14.3,> 10200
"COc1ccc(-n2cc(C(O)c3c(C4CC4)sc4cncn34)nn2)c(OC)n1 (racemic) [Example 81, rac-(2-Cyclopropyl-imidazo[5,1-b]thiazol-3-yl)-[1-(2,6-dimethoxy-pyridin-3-yl)-1H-[1,2,3]triazol-4-yl]-methanol]",36.1,> 10200
"O[C@@H](c1cn(-c2ccc(OCC3(F)COC3)cc2)nn1)c1c(C2CC2)sc2cncn12 [Example 145a, (R)-(2-Cyclopropyl-imidazo[5,1-b]thiazol-3-yl)-{1-[4-(3-fluoro-oxetan-3-ylmethoxy)-phenyl]-1H-[1,2,3]triazol-4-yl}-methanol]",8.77,> 10200
"COc1ncc(-n2cc(C(O)c3c(C4CC4)sc4cncn34)nn2)c(OC)n1 (racemic) [Example 84, rac-(2-Cyclopropyl-imidazo[5,1-b]thiazol-3-yl)-[1-(2,4-dimethoxy-pyrimidin-5-yl)-1H-[1,2,3]triazol-4-yl]-methanol]",81.7,> 10200
"OC(c1cn(-c2ccccc2)nn1)c1c(C(F)(F)F)sc2cncn12 (racemic) [Example 133, rac-(1-Phenyl-1H-[1,2,3]triazol-4-yl)-(2-trifluoromethyl-imidazo[5,1-b]thiazol-3-yl)-methanol]",24.2,> 10200
"CC(=O)Nc1ccc(-n2cc(C(O)c3c(C4CC4)sc4cncn34)nn2)cc1 (racemic) [Example 95, rac-N-(4-{4-[(2-Cyclopropyl-imidazo[5,1-b]thiazol-3-yl)-hydroxy-methyl]-[1,2,3]triazol-1-yl}-phenyl)-acetamide]",18.3,> 10200

# Other lines, results leading:
IC50 [1] [nM],IC50 [2] [nM],Structure (SMILES)
15,> 10200,"OC[C@H](O)COc1ccc(-n2cc(C(O)c3c(C4CC4)sc4cncn34)nn2)cc1 (mixture of isomers) [Example 202, (S)-3-(4-{4-[(R)-(2-Cyclopropyl-imidazo[5,1-b]thiazol-3-yl)-hydroxy-methyl]-[1,2,3]triazol-1-yl}-phenoxy)-propane-1,2-diol and (S)-3-(4-{4-[(S)-(2-Cyclopropyl-imidazo[5,1-b]thiazol-3-yl)-hydroxy-methyl]-[1,2,3]triazol-1-yl}-phenoxy)-propane-1,2-diol]"
93.9,5890,"Oc1ccc(-n2cc(C(O)c3c(-c4ccccc4)sc4cncn34)nn2)cc1Cl (racemic) [Example 264, rac-2-Chloro-4-{4-[hydroxy-(2-phenyl-imidazo[5,1-b]thiazol-3-yl)-methyl]-[1,2,3]triazol-1-yl}-phenol]"
14.9,> 10200,"NC(=O)c1ccc(-n2cc(C(O)c3c(C4CC4)sc4cncn34)nn2)cc1 (racemic) [Example 185, rac-4-{4-[(2-Cyclopropyl-imidazo[5,1-b]thiazol-3-yl)-hydroxy-methyl]-[1,2,3]triazol-1-yl}-benzamide]"
28.7,2710,"CCc1sc2cncn2c1C(O)c1cn(-c2ccc(NC(=O)c3ccccc3)cc2)nn1 (racemic) [Example 230, rac-N-(4-{4-[(2-Ethyl-imidazo[5,1-b]thiazol-3-yl)-hydroxy-methyl]-[1,2,3]triazol-1-yl}-phenyl)-benzamide]"
71.5,> 10200,"COc1ccc(-n2cc(C(O)c3c(/C=C/C4CC4)sc4cncn34)nn2)cc1 (racemic) [Example 270, rac-[2-((E)-2-Cyclopropyl-vinyl)-imidazo[5,1-b]thiazol-3-yl]-[1-(4-methoxy-phenyl)-1H-[1,2,3]triazol-4-yl]-methanol]"
366,7270,"Cc1sc2cncn2c1C(O)c1ccc(-c2ccccc2)s1 (racemic) [Example 154, rac-(2-Methyl-imidazo[5,1-b]thiazol-3-yl)-(5-phenyl-thiophen-2-yl)-methanol]"
6.88,> 10200,"CCc1sc2cncn2c1C(O)c1cn(-c2ccc(OCCC(C)(C)O)c(Cl)c2)nn1 (racemic) [Example 302, rac-4-(2-Chloro-4-{4-[(2-ethyl-imidazo[5,1-b]thiazol-3-yl)-hydroxy-methyl]-[1,2,3]triazol-1-yl}-phenoxy)-2-methyl-butan-2-ol]"
626,> 10200,"CS(=O)(=O)CCOc1ccc(-n2cc(C(O)c3c(C4CC4)sc4cncn34)nn2)cc1 (racemic) [Example 205, rac-(2-Cyclopropyl-imidazo[5,1-b]thiazol-3-yl)-{1-[4-(2-methanesulfonyl-ethoxy)-phenyl]-1H-[1,2,3]triazol-4-yl}-methanol]"
587,> 10200,"COc1ccccc1-c1ccc(C(O)c2c(C3CC3)sc3cncn23)s1 (racemic) [Example 166, rac-(2-Cyclopropyl-imidazo[5,1-b]thiazol-3-yl)-[5-(2-methoxy-phenyl)-thiophen-2-yl]-methanol]"
3.18,4430,"CCc1sc2cncn2c1C(O)c1cn(-c2cc(Cl)c(OC)cc2F)nn1 (racemic) [Example 319, rac-[1-(5-Chloro-2-fluoro-4-methoxy-phenyl)-1H-[1,2,3]triazol-4-yl]-(2-ethyl-imidazo[5,1-b]thiazol-3-yl)-methanol]"
12.1,9820,"CC1(c2sc3cncn3c2C(O)c2cn(-c3ccc(O)c(Cl)c3)nn2)CC1 (racemic) [Example 324, rac-2-Chloro-4-(4-{hydroxy-[2-(1-methyl-cyclopropyl)-imidazo[5,1-b]thiazol-3-yl]-methyl}-[1,2,3]triazol-1-yl)-phenol]"
1250,> 10200,"OC(c1ccc(-c2ccc(C(F)(F)F)cc2)s1)c1c(C2CC2)sc2cncn12 (racemic) [Example 162, rac-(2-Cyclopropyl-imidazo[5,1-b]thiazol-3-yl)-[5-(4-trifluoromethyl-phenyl)-thiophen-2-yl]-methanol]"
17.9,> 10200,"COc1ccc(-n2cc(C(O)c3c(C4CC4)sc4cncn34)nn2)c(C)c1 (racemic) [Example 306, rac-(2-Cyclopropyl-imidazo[5,1-b]thiazol-3-yl)-[1-(4-methoxy-2-methyl-phenyl)-1H-[1,2,3]triazol-4-yl]-methanol]"
1.46,> 10200,"COc1cc(F)c(-n2nnc(C(O)c3c(C4CC4)sc4cncn34)c2C)cc1Cl (racemic) [Example 333, rac-[1-(5-Chloro-2-fluoro-4-methoxy-phenyl)-5-methyl-1H-[1,2,3]triazol-4-yl]-(2-cyclopropyl-imidazo[5,1-b]thiazol-3-yl)-methanol]"
9.58,6400,"Oc1ccc(-n2cc(C(O)c3c(C4CC4)sc4cncn34)nn2)c(F)c1 (racemic) [Example 208, rac-4-{4-[(2-Cyclopropyl-imidazo[5,1-b]thiazol-3-yl)-hydroxy-methyl]-[1,2,3]triazol-1-yl}-3-fluoro-phenol]"
9.02,> 10200,"C=CCNC(=O)c1ccc(-n2cc(C(O)c3c(C4CC4)sc4cncn34)nn2)cc1 (racemic) [Example 193, rac-N-Allyl-4-{4-[(2-cyclopropyl-imidazo[5,1-b]thiazol-3-yl)-hydroxy-methyl]-[1,2,3]triazol-1-yl}-benzamide]"
